Numbered stars: 1 amine (or outer) side, 2 acyl side, 3 side chain; on linkers, the order of the positions; unused ones are H or OH. Bridge positions count the residues as written; N and C are the ends. Square brackets hold non-standard residues; d marks the D form. Peptide text beside a SMILES is read from it. * marks the point of attachment. hPhe(3-Cl-4-CF3) = N[C@@H](CCc1ccc(C(F)(F)F)c(Cl)c1)C(=O)O; X115 = O=C([C@H](CCc1ccc(S(F)(F)(F)(F)F)cc1)N[*:1])[*:2]; hPhe(3-F,4-CF3) = N[C@@H](CCc1ccc(C(F)(F)F)c(F)c1)C(=O)O; Pro(cis-4-Ph) = O=C(O)[C@@H]1C[C@H](c2ccccc2)CN1; NMePhe(3-Cl) = CN[C@@H](Cc1cccc(Cl)c1)C(=O)O; NMePhe(4-Cl) = CN[C@@H](Cc1ccc(Cl)cc1)C(=O)O; X51 = CN([C@@](C)(Cc1ccccc1)C(=O)[*:2])[*:1]; Phe(3-I) = N[C@@H](Cc1cccc(I)c1)C(=O)O; NMeY = CN[C@@H](Cc1ccc(O)cc1)C(=O)O; NMeCha = CN[C@@H](CC1CCCCC1)C(=O)O; NMeChg = CN[C@H](C(=O)O)C1CCCCC1; NMeT = CN[C@H](C(=O)O)[C@@H](C)O; NMeD = CN[C@@H](CC(=O)O)C(=O)O; NMeL = CN[C@@H](CC(C)C)C(=O)O; NMeNva = CCC[C@H](NC)C(=O)O; NMeV = CN[C@H](C(=O)O)C(C)C; d(β3hA) = C[C@@H](N)CC(=O)O; NMeA = CN[C@@H](C)C(=O)O; NMeAib = CNC(C)(C)C(=O)O; Nle = CCCC[C@H](N)C(=O)O; Piperidide = C1CCN(*)CC1; Ac5c = NC1(C(=O)O)CCCC1; Aze = O=C(O)[C@@H]1CCN1; NBuGly = CCCCNCC(=O)O; Sar = CNCC(=O)O
system: Human pancreatic cancer cell line AsPC-1 (G12D mutation Kras); assay: AsPC-1 cell growth inhibition (AsPC-1 CGI); type: cell-based; conditions: read-out: AsPC-1 cell growth inhibition, 50% growth inhibitory concentration (IC50 value); 96 hours, CellTiter-Glo, values classified in ranges
Protocol: Test compounds were serially dilated with dimethyl sulfoxide, and 200 nL was then dispensed to a U-bottom 96-well plate using Labcyte Echo. […] The cell suspension was dispensed to a. plate containing a test compound at 100 μL per well and incubated at 37° C. in a 5% carbon dioxide gas incubator. 96 hours later, 80 μL of CellTiter-Glo (Promega) was added to each well and fluorescence was measured.

Compound	IC50 [nM]
CC[C@H](C)[C@@H]1NC(=O)[C@H](CC(C)C)N(C)C(=O)C[C@@H](C)NC(=O)[C@H](CC(C)C)N(C)C(=O)C2(CCCC2)NC(=O)[C@@H]2CCCN2C(=O)[C@H](CCc2ccc(S(F)(F)(F)(F)F)cc2)NC(=O)CN(C)C(=O)[C@H](CC2CCCCC2)N(C)C(=O)CN(C)C(=O)CN(C)C1=O [Compound 1021] (cyclo([Ac5c][NMeL][d(β3hA)][NMeL]I[Sar][Sar][NMeCha][Sar][X115]P))	> 500
CCC[C@H]1C(=O)N(C)CC(=O)N[C@@H](CCc2ccc(C(F)(F)F)c(Cl)c2)C(=O)N2CCC[C@H]2C(=O)NC2(CCCC2)C(=O)N(C)[C@@H](C(C)C)C(=O)N(C)[C@H](C(=O)N2CCCCC2)CC(=O)N(C)[C@@H](CC(C)C)C(=O)N[C@@H]([C@@H](C)CC)C(=O)N(C)[C@@H](C)C(=O)N2CC[C@H]2C(=O)N1C [Compound 1027] ([NMeL]I[NMeA][Aze][NMeNva][Sar][hPhe(3-Cl-4-CF3)]P[Ac5c][NMeV][NMeD]-Piperidide; lactam N-11)	> 500
CCCCN1CC(=O)N(C)[C@@H](CC2CCCCC2)C(=O)N(C)CC(=O)N[C@@H](CCc2ccc(C(F)(F)F)c(Cl)c2)C(=O)N2CCC[C@H]2C(=O)NC2(CCCC2)C(=O)N(C)[C@@H](C(C)C)C(=O)N[C@H](C)CC(=O)N(C)[C@@H](CC(C)C)C(=O)N[C@@H]([C@@H](C)CC)C(=O)N(C)CC1=O [Compound 1033] (cyclo([Ac5c][NMeV][d(β3hA)][NMeL]I[Sar][NBuGly][NMeCha][Sar][hPhe(3-Cl-4-CF3)]P))	> 500
CC[C@H](C)[C@@H]1NC(=O)[C@H](CC(C)C)N(C)C(=O)C[C@@H](C(=O)N2CCCCC2)N(C)C(=O)[C@H]([C@@H](C)O)N(C)C(=O)C2(CCCC2)NC(=O)[C@@H]2CCCN2C(=O)[C@H](CCc2ccc(C(F)(F)F)c(Cl)c2)NC(=O)CN(C)C(=O)[C@H](CC2CCCCC2)N(C)C(=O)CN(C)C(=O)CN(C)C1=O [Compound 1041] ([NMeL]I[Sar][Sar][NMeCha][Sar][hPhe(3-Cl-4-CF3)]P[Ac5c][NMeT][NMeD]-Piperidide; lactam N-11)	> 500
CCCC[C@@H]1NC(=O)[C@H](Cc2ccccc2)NC(=O)CN(C)C(=O)[C@H](Cc2ccc(Cl)cc2)N(C)C(=O)CN(C)C(=O)CN(C)C(=O)[C@H]([C@@H](C)CC)NC(=O)[C@H](CC(C)C)N(C)C(=O)C[C@@H](C(=O)N2CCCCC2)N(C)C(=O)[C@H](CC(C)C)NC(=O)C(C)(C)N(C)C1=O [Compound 1043] ([NMeL]I[Sar][Sar][NMePhe(4-Cl)][Sar]F[Nle][NMeAib]L[NMeD]-Piperidide; lactam N-11)	> 500
CCCC[C@@H]1NC(=O)[C@H](Cc2cccc(I)c2)NC(=O)CN(C)C(=O)[C@H](Cc2ccc(Cl)cc2)N(C)C(=O)CN(C)C(=O)CN(C)C(=O)[C@H]([C@@H](C)CC)NC(=O)[C@H](CC(C)C)N(C)C(=O)C[C@@H](C(=O)N2CCCCC2)N(C)C(=O)[C@H](CC(C)C)NC(=O)[C@H](Cc2cccc(Cl)c2)N(C)C1=O [Compound 1044] ([NMeL]I[Sar][Sar][NMePhe(4-Cl)][Sar][Phe(3-I)][Nle][NMePhe(3-Cl)]L[NMeD]-Piperidide; lactam N-11)	> 500
CC[C@H](C)[C@@H]1NC(=O)[C@H](CC(C)C)N(C)C(=O)C[C@@H](C)NC(=O)[C@H](C(C)C)N(C)C(=O)C2(CCCC2)NC(=O)[C@@H]2CCCN2C(=O)[C@H](CCc2ccc(C(F)(F)F)c(Cl)c2)NC(=O)CN(C)C(=O)[C@H](CC2CCCCC2)N(C)C(=O)[C@@H]2CCCN2C(=O)CN(C)C1=O [Compound 1050] (cyclo([Ac5c][NMeV][d(β3hA)][NMeL]I[Sar]P[NMeCha][Sar][hPhe(3-Cl-4-CF3)]P))	> 500
CC[C@H](C)[C@@H]1NC(=O)[C@H](CC(C)C)N(C)C(=O)C[C@@H](C(=O)N2CCCCC2)N(C)C(=O)[C@H](C2CCCCC2)N(C)C(=O)C2(CCCC2)NC(=O)[C@@H]2C[C@H](c3ccccc3)CN2C(=O)[C@H](CCc2ccc(C(F)(F)F)c(Cl)c2)NC(=O)CN(C)C(=O)[C@H](CC2CCCCC2)N(C)C(=O)[C@@H]2CCN2C(=O)[C@H](C)N(C)C1=O [Compound 1053] ([NMeL]I[NMeA][Aze][NMeCha][Sar][hPhe(3-Cl-4-CF3)][Pro(cis-4-Ph)][Ac5c][NMeChg][NMeD]-Piperidide; lactam N-11)	> 500
CCCC[C@@H]1NC(=O)[C@H](Cc2cccc(I)c2)NC(=O)CN(C)C(=O)[C@H](Cc2ccc(OC)cc2)N(C)C(=O)[C@@H]2CCN2C(=O)CN(C)C(=O)[C@H]([C@@H](C)CC)NC(=O)[C@H](CC(C)C)N(C)C(=O)C[C@@H](C(=O)N2CCCCC2)N(C)C(=O)[C@H](CC(C)C)NC(=O)[C@](C)(Cc2ccccc2)N(C)C1=O [Compound 1058] ([NMeL]I[Sar][Aze][NMeY](Me)[Sar][Phe(3-I)][Nle][X51]L[NMeD]-Piperidide; lactam N-11)	> 500
CC[C@H](C)[C@@H]1NC(=O)[C@H](CC(C)C)N(C)C(=O)C[C@@H](C(=O)N2CCCCC2)N(C)C(=O)[C@H](CC(C)C)N(C)C(=O)C2(CCCC2)NC(=O)[C@@H]2CCCN2C(=O)[C@H](CCc2ccc(C(F)(F)F)c(F)c2)NC(=O)CN(C)C(=O)[C@H](Cc2ccc(Cl)cc2)N(C)C(=O)CN(C)C(=O)CN(C)C1=O [Compound 1061] ([NMeL]I[Sar][Sar][NMePhe(4-Cl)][Sar][hPhe(3-F,4-CF3)]P[Ac5c][NMeL][NMeD]-Piperidide; lactam N-11)	> 500

— patent publication US20240148821A1, “PHARMACEUTICAL USE OF CYCLIC PEPTIDE COMPOUND” (CHUGAI SEIYAKU KABUSHIKI KAISHA, priority 2021, published 2024)
